Data published in patent publication US20260285850A1, “SUBSTITUTED OXAZOLIDINONES AND IMIDAZOLINONES AS HERBICIDES” (FMC CORPORATION, priority 2023, published 2026).

How the values were obtained:
Format in all cases: in vivo
[1] = tested on: barnyardgrass (Echinochloa crus-galli); assay: Test A preemergence soil spray, visual injury rating 0-100; settings: 10 days
Procedure, shortened: (§1)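 Seeds sown in loam-sand blend got a preemergence directed soil spray, or emerged plants (2-10 cm, one- to two-leaf) got a postemergence spray, of compound in non-phytotoxic solvent with surfactant. After 10 days in greenhouse, injury rated visually versus untreated controls on a 0 (no effect) to 100 (complete control) scale.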

[2] = tested on: blackgrass (Alopecurus myosuroides); assay: as above; settings: 10 days
Procedure, shortened: as §1

corn (Zea mays) [3] = assay: as above; settings: 10 days
Procedure, shortened: as §1

[4] = tested on: green foxtail (Setaria viridis); assay: as above; settings: 10 days
Procedure, shortened: as §1

kochia (Bassia scoparia) [5] = assay: as above; settings: 10 days
Procedure, shortened: as §1

[6] = tested on: oat, wild (wild oat, Avena fatua); assay: as above; settings: 10 days
Procedure, shortened: as §1

[7] = tested on: palmer (palmer amaranth, palmer pigweed, Amaranthus palmeri); assay: as above; settings: 10 days
Procedure, shortened: as §1

[8] = tested on: ragweed (common ragweed, Ambrosia artemisiifolia); assay: as above; settings: 10 days
Procedure, shortened: as §1

[9] = tested on: ryegrass, Italian (italian ryegrass, Lolium multiflorum); assay: as above; settings: 10 days
Procedure, shortened: as §1

soybean (Glycine max) [10] = assay: as above; settings: 10 days
Procedure, shortened: as §1

[11] = tested on: wheat (Triticum aestivum); assay: as above; settings: 10 days
Procedure, shortened: as §1

[12] = tested on: barnyardgrass (Echinochloa crus-galli); assay: Test A postemergence application, visual injury rating 0-100
Procedure, shortened: as §1

[13] = tested on: blackgrass (Alopecurus myosuroides); assay: as above
Procedure, shortened: as §1

corn (Zea mays) [14] = assay: as above
Procedure, shortened: as §1

[15] = tested on: galium (catchweed bedstraw, Galium aparine); assay: as above
Procedure, shortened: as §1

[16] = tested on: green foxtail (Setaria viridis); assay: as above
Procedure, shortened: as §1

[17] = tested on: horseweed (Erigeron canadensis); assay: as above
Procedure, shortened: as §1

kochia (Bassia scoparia) [18] = assay: as above
Procedure, shortened: as §1

[19] = tested on: oat, wild (wild oat, Avena fatua); assay: as above
Procedure, shortened: as §1

[20] = tested on: palmer (palmer amaranth, palmer pigweed, Amaranthus palmeri); assay: as above
Procedure, shortened: as §1

[21] = tested on: ragweed (common ragweed, Ambrosia artemisiifolia); assay: as above
Procedure, shortened: as §1

[22] = tested on: ryegrass, Italian (italian ryegrass, Lolium multiflorum); assay: as above
Procedure, shortened: as §1

soybean (Glycine max) [23] = assay: as above
Procedure, shortened: as §1

[24] = tested on: wheat (Triticum aestivum); assay: as above
Procedure, shortened: as §1

[25] = tested on: barnyardgrass (Echinochloa crusgalli); assay: Test B flooded paddy test, visual plant response rating 0-100; settings: 250 g ai/ha, Flood, applied to paddy water, evaluated after 13 days
Procedure, shortened: (§2)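 Paddy-water application: test compounds went directly into water flooded 3 cm above the soil surface, with plants at 2 leaves. After a 13-day greenhouse period, responses were judged by eye relative to controls; a dash marks an untested entry.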

[26] = tested on: ducksalad (Heteranthera limosa); assay: as above; settings: 250 g ai/ha, Flood, applied to paddy water, evaluated after 13 days
Procedure, shortened: as §2

rice (Oryza sativa) = assay: as above; settings: 250 g ai/ha, Flood, applied to paddy water, evaluated after 13 days
Procedure, shortened: as §2

[27] = tested on: sedge, umbrella (small-flower umbrella sedge, Cyperus difformis); assay: as above; settings: 250 g ai/ha, Flood, applied to paddy water, evaluated after 13 days
Procedure, shortened: as §2

[28] = 62 g ai/ha, 0 = no effect, 100 = complete control
[29] = 62 g ai/ha, postemergence, 10 days, 0 = no effect, 100 = complete control
[30] = Postemergence, 16 g ai/ha, greenhouse 10 days, 0 no effect, 100 complete control

COC(=O)C1C=CC(NC(=O)C2(C)CN(c3cc(F)cc(F)c3)C(=O)O2)C1 (mixture of isomers) [Compound 161]
Barnyardgrass plant response rating ([1]; 16 g ai/ha, 0 to 100 scale): 80 | Barnyardgrass plant response rating (0-100) [1, 28]: 100 | Blackgrass plant response rating ([2]; 16 g ai/ha, 0 to 100 scale): 70 | Blackgrass plant response rating (0-100) [2, 28]: 90 | Corn plant response rating (corn (Zea mays) [3]; 16 g ai/ha, 0 to 100 scale): 30 | Corn plant response rating (0-100) (corn (Zea mays) [3]; [28]): 80 | Foxtail, Green plant response rating ([4]; 16 g ai/ha, 0 to 100 scale): 30 | Foxtail, Green plant response rating (0-100) [4, 28]: 100 | Kochia plant response rating (kochia (Bassia scoparia) [5]; 16 g ai/ha, 0 to 100 scale): 0 | Kochia plant response rating (0-100) (kochia (Bassia scoparia) [5]; [28]): 50 | Oat, Wild plant response rating ([6]; 16 g ai/ha, 0 to 100 scale): 30 | Oat, Wild plant response rating (0-100) [6, 28]: 90 | Pigweed, Palmer plant response rating ([7]; 16 g ai/ha, 0 to 100 scale): 90 | Pigweed, Palmer plant response rating (0-100) [7, 28]: 100 | Ragweed plant response rating ([8]; 16 g ai/ha, 0 to 100 scale): 10 | Ragweed plant response rating (0-100) [8, 28]: 50 | Ryegrass, Italian plant response rating ([9]; 16 g ai/ha, 0 to 100 scale): 90 | Ryegrass, Italian plant response rating (0-100) [9, 28]: 90 | Soybean plant response rating (soybean (Glycine max) [10]; 16 g ai/ha, 0 to 100 scale): 0 | Soybean plant response rating (0-100) (soybean (Glycine max) [10]; [28]): 50 | Wheat plant response rating ([11]; 16 g ai/ha, 0 to 100 scale): 80 | Wheat plant response rating (0-100) [11, 28]: 90 | Barnyardgrass plant response rating (0-100) [12, 29]: 100 | Barnyardgrass plant response rating (0 to 100 scale) [12, 30]: 80 | Blackgrass plant response rating (0-100) [13, 29]: 90 | Blackgrass plant response rating (0 to 100 scale) [13, 30]: 90 | Corn plant response rating (0-100) (corn (Zea mays) [14]; [29]): 100 | Corn plant response rating (0 to 100 scale) (corn (Zea mays) [14]; [30]): 100 | Galium plant response rating (0-100) [15, 29]: 90 | Galium plant response rating (0 to 100 scale) [15, 30]: 80 | Foxtail, Green plant response rating (0-100) [16, 29]: 90 | Foxtail, Green plant response rating (0 to 100 scale) [16, 30]: 60 | Horseweed plant response rating (0-100) [17, 29]: 70 | Horseweed plant response rating (0 to 100 scale) [17, 30]: 60 | Kochia plant response rating (0-100) (kochia (Bassia scoparia) [18]; [29]): 30 | Kochia plant response rating (0 to 100 scale) (kochia (Bassia scoparia) [18]; [30]): 0 | Oat, Wild plant response rating (0-100) [19, 29]: 90 | Oat, Wild plant response rating (0 to 100 scale) [19, 30]: 90 | Pigweed, Palmer plant response rating (0-100) [20, 29]: 70 | Pigweed, Palmer plant response rating (0 to 100 scale) [20, 30]: 40 | Ragweed plant response rating (0-100) [21, 29]: 70 | Ragweed plant response rating (0 to 100 scale) [21, 30]: 50 | Ryegrass, Italian plant response rating (0-100) [22, 29]: 80 | Ryegrass, Italian plant response rating (0 to 100 scale) [22, 30]: 70 | Soybean plant response rating (0-100) (soybean (Glycine max) [23]; [29]): 70 | Soybean plant response rating (0 to 100 scale) (soybean (Glycine max) [23]; [30]): 60 | Wheat plant response rating (0-100) [24, 29]: 90 | Wheat plant response rating (0 to 100 scale) [24, 30]: 90 | Plant response rating, Barnyardgrass (0 to 100 scale, 0 is no effect and 100 is complete control) [25]: 60 | Plant response rating, Ducksalad (0 to 100 scale, 0 is no effect and 100 is complete control) [26]: 80 | Plant response rating, Rice (0 to 100 scale, 0 is no effect and 100 is complete control) (rice (Oryza sativa)): 85 | Plant response rating, Sedge, Umbrella (0 to 100 scale, 0 is no effect and 100 is complete control) [27]: 95
